The record followed here is BindingDB's records for PubMed 18089823 (Harvard Medical School).

This assay addresses 3-phosphoinositide-dependent protein kinase 1 (Homo sapiens) (UniProt O15530). The assay is described as follows: Inhibition of recombinant PDK1 (unknown origin).

Where only a bound is given, the exact number is not on record here.

On to `COc1cc2ncnc(Nc3ccc(F)c(Cl)c3)c2cc1NC(=O)/C=C/CN1CCCCC1` [DACOMITINIB], for which the IC50 (commonly the midpoint of a concentration-inhibition curve) is above 10 µM.
